The term IC50 denotes the midpoint of a concentration-inhibition curve.

In the assay the test system is TEAD-dependent transcription. Description: TEAD-dependent transcription cell-based reporter assay (MSTO-211H+12XGTIIC luciferase). The conditions noted are these: Homo sapiens; MSTO-211H+12XGTIIC cell line, luciferase signal normalized to cell viability, 24 hours compound incubation; read-out: MSTO-211H GMean IC50 (uM) Cell Assay Reporter Cell Variant: TEAD. The arrangement: species or system human. The text has this: Determine Inhibitor Activity Against TEAD-Dependent Transcription in a Cell-Based Reporter Assay
The human mesothelioma cell line MSTO-211H was stably transfected with a pGL4.21 plasmid containing a synthetic promoter with 12 copies of the GTIIC TEAD response element that drives the expression of a luciferase reporter gene^1 using Lipofectamine transfection reagent (Thermo Fisher). Transfected cells were selected using puromycin and single cell clones expressing this construct (referred to as MSTO-211H+12XGTIIC) were generated by limiting dilution. MSTO-211H cells was characterized by genetic alterations in key components of the Hippo pathway^2, resulting in up-regulation of YAP/TEAD-mediated transcription. […] To evaluate TEAD inhibitors, the MSTO-211H+12XGTIIC cell line was seeded in a 96-well plate in 50 μL of culture media at 1×10^4 cells per well and incubated at 37° C. overnight. Serial dilutions of compounds (in total volume of 50 μL of culture media) were added to the cells and incubated at 37° C. for 24 hours. Each plate included cells treated with DMSO as high controls and cells treated with 20 μM of the reference compound K-975 (a known TEAD inhibitor)^3 as low controls. Cell viability was assayed by the addition of 25 μL of CellTiter-Fluor reagent (Promega) followed by a 30-minute incubation at 37° C. and quantification of the fluorescence signal (Ex400/Em505). Subsequently, luciferase expression was assayed by the addition of 25 μL of ONE-Glo reagent (Promega) followed by a 10-minute incubation at room temperature and quantification of the luminescence signal. The luminescence signal was normalized to the fluorescence signal to correct for any loss in cell viability over the 24-hour compound incubation period. The percentage of inhibition of normalized luminescence signal, indicative of compound-mediated inhibition of TEAD-dependent transcription, at individual compound concentrations relative to high and low controls was calculated. The data were analyzed by using nonlinear regression to generate IC50 values for individual compounds.
For orientation: In a reporter assay the amount or activity of a reporter protein is the signal.
In the case of `CCCCS(=O)(=O)N1CCc2ccc(Oc3ccc(C(F)(F)F)cc3)cc2C1` [P-0034, 2-(butylsulfonyl)-7-(4-(trifluoromethyl)phen-oxy)-1,2,3,4-tetrahydro-isoquinoline], the IC50 lay in the range of 0.001 to 10 µM.
As for `CCN(CC)C(=O)N1CCc2ccc(Oc3ccc(C(F)(F)F)cc3)cc2C1` [P-0035, N,N-diethyl-7-(4-(trifluoromethyl)phen-oxy)-3,4-dihydroisoquin-oline-2(1H)-carboxamide], the IC50 fell in the range of 0.001 to 10 µM.
On to `C=C(C)OC(=O)N1CCc2ccc(Oc3ccc(C(F)(F)F)cc3)cc2C1` [P-0036, prop-1-en-2-yl 7-(4-(trifluoromethyl)phen-oxy)-3,4-dihydroiso-quinoline-2(1H)-carbox-ylate], for which the IC50 is 0.001 to 10 µM.
For `O=C(NC1CCCC1)N1CCc2ccc(Oc3ccc(C(F)(F)F)cc3)cc2C1` [P-0037, N-cyclopentyl-7-(4-(trifluoromethyl)phen-oxy)-3,4-dihydroiso-quinoline-2(1H)-carbox-amide], the IC50 lay within 0.001 to 10 µM.
Turning to `O=C(NC1CCOC1)N1CCc2ccc(Oc3ccc(C(F)(F)F)cc3)cc2C1` (centres unmarked) [P-0038, N-(tetrahydrofuran-3-yl)-7-(4-(trifluorometh-yl)phenoxy)-3,4-dihydro-isoquinoline-2(1H)-carboxamide], the IC50 was 0.001 to 10 µM.
The result for `NC(=O)CCC(=O)N1CCc2ccc(Oc3ccc(C(F)(F)F)cc3)cc2C1` [P-0039, 4-oxo-4-(7-(4-(trifluoro-methyl)phenoxy)-3,4-dihydroisoquinolin-2(1H)-yl)butanamide] reads 0.001 to 10 µM; that for `N#CCCC(=O)N1CCc2ccc(Oc3ccc(C(F)(F)F)cc3)cc2C1` [P-0040, 4-oxo-4-(7-(4-(trifluoro-methyl)phenoxy)-3,4-dihydroisoquinolin-2(1H)-yl)butanenitrile], 0.001 to 10 µM.
The result for `CP(C)(=O)CCC(=O)N1CCc2ccc(Oc3ccc(C(F)(F)F)cc3)cc2C1` [P-0041, 3-(dimethylphosphoryl)-1-(7-(4-(trifluorometh-yl)phenoxy)-3,4-dihydro-isoquinolin-2(1H)-yl)-propan-1-one] reads 0.001 to 10 µM; that for `N#CC1CC(C(=O)N2CCc3ccc(Oc4ccc(C(F)(F)F)cc4)cc3C2)C1` (centres unmarked) [P-0042, 3-(7-(4-(trifluorometh-yl)phenoxy)-1,2,3,4-tetrahydroisoquinoline-2-carbonyl)cyclobutane-1-carbonitrile], 0.001 to 10 µM; that for `O=C1CC(CC(=O)N2CCc3ccc(Oc4ccc(C(F)(F)F)cc4)cc3C2)C(=O)N1` (centres unmarked) [P-0043, 3-(2-oxo-2-(7-(4-(trifluoromethyl)phen-oxy)-3,4-dihydroiso-quinolin-2(1H)-yl)ethyl)-pyrrolidine-2,5-dione], 0.001 to 10 µM.
For the molecule `O=C(CN1C(=O)CCC1=O)N1CCc2ccc(Oc3ccc(C(F)(F)F)cc3)cc2C1` [P-0044, 1-(2-oxo-2-(7-(4-(trifluoromethyl)phen-oxy)-3,4-dihydroiso-quinolin-2(1H)-yl)-ethyl)pyrrolidine-2,5-dione], the IC50 fell in the range of 0.001 to 10 µM.
In the case of `O=C(C1CCS(=O)(=O)C1)N1CCc2ccc(Oc3ccc(C(F)(F)F)cc3)cc2C1` (centres unmarked) [P-0045, (1,1-dioxidotetrahydro-thiophen-3-yl)(7-(4-(trifluoromethyl)phen-oxy)-3,4-dihydroisoquin-olin-2(1H)-yl)methanone], the IC50 fell in the range of 0.001 to 10 µM.
As for `Cc1nnc(CCC(=O)N2CCc3ccc(Oc4ccc(C(F)(F)F)cc4)cc3C2)s1` [P-0046, 3-(5-methyl-1,3,4-thiadi-azol-2-yl)-1-(7-(4-(trifluoromethyl)phen-oxy)-3,4-dihydroisoquin-olin-2(1H)-yl)propan-1-one], the IC50 was in the range of 0.001 to 10 µM.
For `O=C(Cc1cnccc1O)N1CCc2ccc(Oc3ccc(C(F)(F)F)cc3)cc2C1` [P-0047, 2-(4-hydroxypyridin-3-yl)-1-(7-(4-(trifluoro-methyl)phenoxy)-3,4-dihydroisoquinolin-2(1H)-yl)ethan-1-one], the IC50 fell in the range of 0.001 to 10 µM.
Regarding `NS(=O)(=O)CCC(=O)N1CCc2ccc(Oc3ccc(C(F)(F)F)cc3)cc2C1` [P-0048, 3-oxo-3-(7-(4-(trifluoro-methyl)phenoxy)-3,4-dihydroisoquinolin-2(1H)-yl)propane-1-sulfonamide], the IC50 lay within 0.001 to 10 µM.
For the molecule `N#CCCS(=O)(=O)N1CCc2ccc(Oc3ccc(C(F)(F)F)cc3)cc2C1` [P-0049, 3-((7-(4-(trifluorometh-yl)phenoxy)-3,4-dihydro-isoquinolin-2(1H)-yl)sul-fonyl)propanenitrile], the IC50 fell in the range of 0.001 to 10 µM.
For `COC(=O)CCS(=O)(=O)N1CCc2ccc(Oc3ccc(C(F)(F)F)cc3)cc2C1` [P-0050, methyl 3-((7-(4-(trifluoro-methyl)phenoxy)-3,4-dihydroisoquinolin-2(1H)-yl)sulfonyl)pro-panoate], the IC50 lay within 0.001 to 10 µM.
Regarding `NC(=O)CCS(=O)(=O)N1CCc2ccc(Oc3ccc(C(F)(F)F)cc3)cc2C1` [P-0051, 3-((7-(4-(trifluorometh-yl)phenoxy)-3,4-dihydro-isoquinolin-2(1H)-yl)sul-fonyl)propanamide], the IC50 lay within 0.001 to 10 µM.
With `CS(=O)(=O)CCCC(=O)N1CCc2ccc(Oc3ccc(C(F)(F)F)cc3)cc2C1` [P-0052, 4-(methylsulfonyl)-1-(7-(4-(trifluoromethyl)phen-oxy)-3,4-dihydroisoquin-olin-2(1H)-yl)butan-1-one], the IC50 is 0.001 to 10 µM.
In the case of `CS(=O)(=O)CCCN1CCc2ccc(Oc3ccc(C(F)(F)F)cc3)cc2C1` [P-0053, 2-(3-(methylsulfonyl)-propyl)-7-(4-(trifluoro-methyl)phenoxy)-1,2,3,4-tetrahydroisoquinoline], the IC50 is 0.001 to 10 µM.
The value for `NS(=O)(=O)NCC(=O)N1CCc2ccc(Oc3ccc(C(F)(F)F)cc3)cc2C1` [P-0054, N-(2-(7-(4-(trifluorometh-yl)phenoxy)-3,4-dihydro-isoquinolin-2(1H)-yl)-2-oxoethyl)sulfamide] was 0.001 to 10 µM; that for `CS(=N)(=O)CCC(=O)N1CCc2ccc(Oc3ccc(C(F)(F)F)cc3)cc2C1` (centres unmarked) [P-0055, imino(methyl)(3-oxo-3-(7-(4-(trifluoromethyl)-phenoxy)-3,4-dihydroiso-quinolin-2(1H)-yl)prop-yl)-16-sulfanone] was 0.001 to 10 µM.
The value for `C[S+]([O-])CCC(=O)N1CCc2ccc(Oc3ccc(C(F)(F)F)cc3)cc2C1` (centres unmarked) [P-0056, 3-(methylsulfinyl)-1-(7-(4-(trifluoromethyl)phen-oxy)-3,4-dihydroisoquin-olin-2(1H)-yl)propan-1-one] was 0.001 to 10 µM.
For the molecule `O=C(O)CCC(=O)N1CCc2ccc(Oc3ccc(C(F)(F)F)cc3)cc2C1` [P-0057, 4-oxo-4-(7-(4-(trifluoro-methyl)phenoxy)-3,4-dihydroisoquinolin-2(1H)-yl)butanoic acid], the IC50 fell in the range of 0.001 to 10 µM.
Take `O=C(CCc1nnc[nH]1)N1CCc2ccc(Oc3ccc(C(F)(F)F)cc3)cc2C1` [P-0058, 3-(4H-1,2,4-triazol-3-yl)-1-(7-(4-(trifluorometh-yl)phenoxy)-3,4-dihydro-isoquinolin-2(1H)-yl)-propan-1-one]: the IC50 lay within 0.001 to 10 µM.
The value for `O=C(CC1CCS(=O)(=O)C1)N1CCc2ccc(Oc3ccc(C(F)(F)F)cc3)cc2C1` (centres unmarked) [P-0059, 2-(1,1-dioxidotetrahydro-thiophen-3-yl)-1-(7-(4-(trifluoromethyl)phen-oxy)-3,4-dihydroisoquin-olin-2(1H)-yl)ethan-1-one] was 0.001 to 10 µM.

(Values after patent US20250129028A1, “COMPOUNDS AND METHODS FOR YAP/TEAD MODULATION AND INDICATIONS THEREFOR” (Opna Bio SA, priority 2022, published 2025).)
